Experimental data reported in article PMC7503767, “Alkoxyamines Designed as Potential Drugs against Plasmodium and Schistosoma Parasites” (Molecules, 2020).
Like-named read-outs stand apart in the source and are kept apart here. Marks after values point to notes of the source that are not given here.

Assays:
[1] = system: Adult S. mansoni; assay: In vitro antischistosomal activity on adult worms; type: cell-based, Schistosoma mansoni; settings: for Mean (±SD) survival time – Adult S. mansoni / Time for the death of 100% worms: 100 µg/mL; for Mean (±SD) survival time – Adult S. mansoni: observation up to 8 h (Table S1)
Excerpt: The NMRI strain of Schistosoma mansoni was used for the experimentations. The parasite was maintained on an albino variety of Biomphalaria glabrata from Brazil (intermediate host) and in Golden Hamsters, Mesocricetus auratus (Janvier Labs, Le Genest-Saint-Isle, France). Detailed methods, for mollusk and hamster infections and for parasite recovery, were previously described.
Adult worms were recovered between 42 and 47 days after infection by hepatic perfusion technique. Twenty to fifty adult worms were disposed in 12-well Falcon® plate containing 2 mL of RPMI 1640 (supplemented with L-glutamine and Hepes 25 mM) and stored in an incubator chamber (37 °C; 5% CO2). Drug preparation started with dissolution of the drug in DMSO to give a 100 mg/mL stock solution. The dilution was complemented with Tween 80 and RPMI in order to obtain the following final ratio dilution: RPMI 1640/Tween 80/DMSO, 1000/0.95/3.8, v/v/v. The drug solution was added to Falcon plates that contained adult worms. The S. mansoni cultures were then incubated with each drug at a final concentration of 100 µg/mL. Positive control was carried out with a solution of praziquantel (Merck KGaA, Darmstadt, Germany) at a concentration of 100 µg/mL. Negative control was carried out with the same RPMI 1640/Tween 80/DMSO solution, but without any drug. Each test was performed in duplicate. Every hour, moving worms were counted in order to define the percentage of survivors. Parasites showing no body contractions during a 30 s observation were considered as dead. Observations were extended to 8 h. Mean survival times (± standard deviation) were calculated for each drug using Kaplan–Meier survival analyses.

[2] = system: P. falciparum chloroquine-resistant strain FcB1-Columbia; assay: Antiplasmodial screen at 10 µM and chemosensitivity assay (SYBR Green I), FcB1-Columbia; type: cell-based, Plasmodium falciparum; settings: FcB1-Columbia strain, read-out: IC50 on P. falciparum
[3] = Homolysis of the NO–C bond measured by EPR
Method: Homolysis rate constants kd’ were measured by EPR and estimated using Equation (1) as reported many times in the literature. Further, Ea and kd were estimated using Equation (2). (1) ln([nitroxide]∞−[nitroxide]t/[nitroxide]∞)=−kd·t (2) Ea=−RT ln([…] kd′ )

[4] = adult S. mansoni, observation up to 8 h

| Molecule | Mean (±SD) survival time – Adult S. mansoni [1] [h] | Time for the death of 100% worms [1, 4] [h] | other results |
| --- | --- | --- | --- |
| 4-hydroxy-tetramethylpiperidine-N-oxyl [compound 8] | > 8 | > 8 | – |
| CCOP(=O)(OCC)[C@@H](N(O[C@@H](COC(C)=O)c1ccccn1)C(C)(C)C)C(C)(C)C (relative stereo) [(RR/SS)-1j] | > 8 | > 8 | IC50 [2]: > 10 µM |
| CCOP(=O)(OCC)[C@@H](N(O[C@H](C)n1cc[n+](C)c1)C(C)(C)C)C(C)(C)C.Cc1ccc(S(=O)(=O)[O-])cc1 (relative stereo) [(RR/SS)-1n] | > 8 | > 8 | – |
| CCOP(=O)(OCC)[C@@H](N(O[C@H](COC(C)=O)c1ccccn1)C(C)(C)C)C(C)(C)C (relative stereo) [(RS/SR)-1j] | > 8 | > 8 | IC50 [2]: > 10 µM |
| CCOP(=O)(OCC)C(N(OC(C)c1cc(-c2ccccn2)nc(-c2ccccn2)c1)C(C)(C)C)C(C)(C)C (centres unmarked) [1F] | – | – | IC50 [2]: > 10 µM |
| CCOP(=O)(OCC)C(N(OC(C)c1ccncc1)C(C)(C)CO)C(C)(C)C (centres unmarked) [2a] | > 8 | > 8 | – |
| CCOP(=O)(OCC)C(N(OC(C)c1cccnc1)C(C)(C)CO)C(C)(C)C (centres unmarked) [2b] | > 8 | > 8 | – |
| CC(ON1C(C)(C)CC(O)CC1(C)C)c1ccncc1 (centres unmarked) [8a] | > 8 | > 8 | – |
| CC(ON1C(C)(C)CC(O)CC1(C)C)c1cccnc1 (centres unmarked) [8b] | > 8 | > 8 | – |
| CC(ON1C(C)(C)CC(O)CC1(C)C)c1ccccc1 (centres unmarked) [8z] | 1.9 ± 0.1 | 2 | – |
| CC(ON1C(C)(C)CCCC1(C)C)c1cc(-c2ccccn2)nc(-c2ccccn2)c1 (centres unmarked) [9F] | – | – | activation energy Ea ([3]; MeOH/water 1:1 pH = 7.4): 131.9 ^k kJ/mol; re-estimated homolysis rate constant kd at 120 °C ([3]; MeOH/water 1:1 pH = 7.4): 0.7 ^k 10^−3 s^−1; half-lifetime t1/2 at 37 °C ([3]; MeOH/water 1:1 pH = 7.4 (aqueous medium)): 385 ^k day; homolysis rate constant kd′ ([3]; MeOH/water 1:1 pH = 7.4, 90 °C): 0.25 ^k 10^−4s^−1; activation energy Ea ([3]; t-BuPh): 131.0 ^k kJ/mol; half-lifetime t1/2 at 37 °C ([3]; t-BuPh): 385 ^k day; re-estimated homolysis rate constant kd at 120 °C ([3]; t-BuPh): 0.95 ^k 10^−3 s^−1; homolysis rate constant kd′ ([3]; t-BuPh, 111 °C): 3.7 ^k 10^−4s^−1 |
| CC(ON1C(C)(C)CCCC1(C)C)c1cccnc1 (centres unmarked) [9b] | – | 3 | – |
| CC(ON1C(C)(C)CCCC1(C)C)c1ccccc1 (centres unmarked) [9z] | > 8 | > 8 | – |
| CC(ON(C(C)(C)C)C(C)(C)C)c1ccncc1 (centres unmarked) [14a] | 2.5 ± 0.10 | 3 | – |
| CCOP(=O)(OCC)C(N(OC(C)c1cccnc1)C(C)(C)C)C(C)(C)C (centres unmarked) [(RR/SS)-1b] | – | – | IC50 [2]: 22.5 µM |
| CCOP(=O)(OCC)C(N(OC(C)c1ccccn1)C(C)(C)C)C(C)(C)C (centres unmarked) [(RR/SS)-1c] | – | – | IC50 [2]: > 10 µM |
| CCOP(=O)(OCC)C(N(OC(C)c1cn(C)cn1)C(C)(C)C)C(C)(C)C (centres unmarked) [(RR/SS)-1q] | 3.3 ± 0.9 | 6 | – |

| Molecule | Mean (±SD) survival time – Adult S. mansoni [1] [h] | Time for the death of 100% worms [1, 4] [h] | other results |
| --- | --- | --- | --- |
| CCOP(=O)(OCC)C(N(OC(C)c1cn(C)c[n+]1C)C(C)(C)C)C(C)(C)C.[I-] (centres unmarked) [(RR/SS)-1r] | – | 4 | – |
| CCOP(=O)(OCC)C(N(OC(C)c1ccc(C)cc1)C(C)(C)C)C(C)(C)C (centres unmarked) [(RR/SS)-1s] | > 8 | > 8 | – |
| CCOP(=O)(OCC)C(N(OC(C)c1cc(-c2ccccn2)nc(-c2ccccn2)c1)C(C)(C)CO[Si](C)(C)C(C)(C)C)C(C)(C)C (centres unmarked) [(RR/SS)-6F, Diethyl(1-((1-([2,2′:6′,2′′-terpyridin]-4′-yl)ethoxy)(1-((tert-butyldimethylsilyl)oxy)-2-methylpropan-2-yl)amino)-2,2-dimethylpropyl)phosphonate] | – | – | activation energy Ea ([3]; t-BuPh): 123.8 kJ/mol; half-lifetime t1/2 at 37 °C ([3]; t-BuPh): 24 days; re-estimated homolysis rate constant kd at 120 °C ([3]; t-BuPh): 8.5 10^−3 s^−1; homolysis rate constant kd′ ([3]; t-BuPh, 81 °C): 1.4 10^−4s^−1 |
| CCOP(=O)(OCC)C(N(OC(C)c1cc(-c2ccccc2)cc(-c2ccccc2)c1)C(C)(C)CO[Si](C)(C)C(C)(C)C)C(C)(C)C (centres unmarked) [(RR/SS)-6G, Diethyl(1-((1-([1,1′:3′,1′′-terphenyl]-5′-yl)ethoxy)(1-((tert-butyldimethylsilyl)oxy)-2-methylpropan-2-yl)amino)-2,2-dimethylpropyl)phosphonate] | – | – | half-life ([3]; half-lifetime t1/2 at 37 °C, t-BuPh): 33.4 days; activation energy Ea ([3]; t-BuPh): 125.5 kJ/mol; re-estimated homolysis rate constant kd at 120 °C ([3]; t-BuPh): 5.10 10^−3 s^−1; homolysis rate constant kd′ ([3]; t-BuPh, 92 °C): 2.7 10^−4s^−1 |
| CCOP(=O)(OCC)C(N(OC(C)c1cccnc1)C(C)(C)C)C(C)(C)C (centres unmarked) [(RS/SR)-1b] | – | – | IC50 ([2]; listed as (RS/SR)-1B): > 10 µM |
| CCOP(=O)(OCC)C(N(OC(CN)c1ccncc1)C(C)(C)C)C(C)(C)C (centres unmarked) [(RS/SR)-1f] | – | – | IC50 [2]: > 10 µM |
| CCOP(=O)(OCC)C(N(OC(C)n1cc[n+](C)c1)C(C)(C)C)C(C)(C)C.Cc1ccc(S(=O)(=O)[O-])cc1 (centres unmarked) [(RS/SR)-1n] | > 8 | > 8 | – |
| CCOP(=O)(OCC)C(N(OC(C)c1cn(C)cn1)C(C)(C)C)C(C)(C)C (centres unmarked) [(RS/SR)-1q] | 1.3 ± 0.2 | 2 | – |
| CCOP(=O)(OCC)C(N(OC(C)c1cn(C)c[n+]1C)C(C)(C)C)C(C)(C)C.[I-] (centres unmarked) [(RS/SR)-1r] | – | 6 | – |
| CCOP(=O)(OCC)C(N(OC(C)c1ccc(C)cc1)C(C)(C)C)C(C)(C)C (centres unmarked) [(RS/SR)-1s] | 3.3 ± 0.1 | 4 | – |
| CCOP(=O)(OCC)C(N(OC(C)c1cc(-c2ccccc2)cc(-c2ccccc2)c1)C(C)(C)CO)C(C)(C)C (centres unmarked) [(RS/SR)-2G, Diethyl(1-((1-([1,1′:3′,1′′-terphenyl]-5′-yl)ethoxy)(1-hydroxy-2-methylpropan-2-yl)amino)-2,2-dimethylpropyl)phosphonate] | > 8 | > 8 | activation energy Ea ([3]; MeOH/water 2:1 pH = 7.0): 122.1 kJ/mol; half-lifetime t1/2 at 37 °C ([3]; MeOH/water 2:1 pH = 7.0): 12.7 days; re-estimated homolysis rate constant kd at 120 °C ([3]; MeOH/water 2:1 pH = 7.0): 14.4 10^−3 s^−1; homolysis rate constant kd′ ([3]; MeOH/water 2:1 pH = 7.0, 81 °C): 2.3 10^−4s^−1; activation energy Ea ([3]; t-BuPh): 120.8 kJ/mol; half-lifetime t1/2 at 37 °C ([3]; t-BuPh): 7.5 days; re-estimated homolysis rate constant kd at 120 °C ([3]; t-BuPh): 21.6 10^−3 s^−1; homolysis rate constant kd′ ([3]; t-BuPh, 81 °C): 3.7 10^−4s^−1 |
| CCOP(=O)(OCC)C(N(OC(C)c1ccccn1)C(C)(C)CO)C(C)(C)C (centres unmarked) [(RS/SR)-2c] | – | – | IC50 [2]: > 10 µM |
| CCOP(=O)(OCC)C(N(OC(C)c1ccccc1)C(C)(C)C(=O)O)C(C)(C)C (centres unmarked) [(RS/SR)-4z] | > 8 | > 8 | – |
| CCOP(=O)(OCC)C(N(OC(C)c1ccccc1)C(C)(C)C(=O)OC)C(C)(C)C (centres unmarked) [(RS/SR)-5z] | > 8 | > 8 | – |
| CCOP(=O)(OCC)C(N(OC(C)c1cc(-c2ccccn2)nc(-c2ccccn2)c1)C(C)(C)CO[Si](C)(C)C(C)(C)C)C(C)(C)C (centres unmarked) [(RS/SR)-6F, Diethyl(1-((1-([2,2′:6′,2′′-terpyridin]-4′-yl)ethoxy)(1-((tert-butyldimethylsilyl)oxy)-2-methylpropan-2-yl)amino)-2,2-dimethylpropyl)phosphonate] | – | – | activation energy Ea ([3]; t-BuPh): 121.7 kJ/mol; half-lifetime t1/2 at 37 °C ([3]; t-BuPh): 10 days; re-estimated homolysis rate constant kd at 120 °C ([3]; t-BuPh): 16.3 10^−3 s^−1; homolysis rate constant kd′ ([3]; t-BuPh, 81 °C): 2.7 10^−4s^−1 |
| CCOP(=O)(OCC)C(N(OC(C)c1cc(-c2ccccc2)cc(-c2ccccc2)c1)C(C)(C)CO[Si](C)(C)C(C)(C)C)C(C)(C)C (centres unmarked) [(RS/SR)-6G, Diethyl(1-((1-([1,1′:3′,1′′-terphenyl]-5′-yl)ethoxy)(1-((tert-butyldimethylsilyl)oxy)-2-methylpropan-2-yl)amino)-2,2-dimethylpropyl)phosphonate] | – | – | activation energy Ea ([3]; t-BuPh): 124.7 kJ/mol; re-estimated homolysis rate constant kd at 120 °C ([3]; t-BuPh): 6.50 10^−3 s^−1; homolysis rate constant kd′ ([3]; t-BuPh, 92 °C): 3.5 10^−4s^−1 |
| O=C(C1CCCCC1)N1CC(=O)N2CCc3ccccc3C2C1 (centres unmarked) [Praziquantel, praziquantel, reference compound] | 1.0 ± 0.05 | 1 | S. mansoni Mean Survival Time ([1]; adult S. mansoni, single dose 100 µg/mL, observation up to 8 h): 1.0 ± 0.05 h |
